# Reference: DBAASP
# Tests used:
# Test in all cases: ≥ marks a high value that may be exact or a test limit, other limits are often not marked, values filed in µg/mL are converted to µM
# [1] = test system: Staphylococcus aureus NCTC 8325
# [2] = test system: Escherichia coli ATCC 25922
# [3] = test system: Staphylococcus aureus
# [4] = test system: Escherichia coli B
# [5] = test system: Bacillus subtilis 168
# [6] = test system: Pseudomonas aeruginosa
# [7] = test system: Staphylococcus aureus ATCC 43300
# [8] = test system: Staphylococcus aureus ATCC 25923
# [9] = test system: Pseudomonas aeruginosa ATCC 27853
# [10] = test system: Staphylococcus aureus ATCC 29213
# [11] = test system: Escherichia coli UB1005
# [12] = test system: Salmonella enterica subsp. enterica serovar Typhimurium C77-31
# [13] = test system: Staphylococcus epidermidis ATCC 12228
# [14] = test system: Salmonella enterica subsp. enterica serovar Typhimurium ATCC 14028
MIC [2],MIC [3],MIC [4],MIC [5],MIC [6],SMILES,other results
,25 µM,8 µM,2.2 µM,56.7 µM,CC[C@H](C)[C@H](NC(=O)[C@H](Cc1cnc[nH]1)NC(=O)[C@H](CCCCN)NC(=O)[C@H](CC(C)C)NC(=O)[C@H](CC(C)C)NC(=O)[C@H](CO)NC(=O)[C@H](CCC(N)=O)NC(=O)[C@H](Cc1c[nH]c2ccccc12)NC(=O)[C@H](CCCCN)NC(=O)CN)C(=O)N[C@@H](CC(C)C)C(=O)N[C@@H](CCCCN)C(N)=O [GKWQSLLKHILK],
> 128 µM,,,,,CC[C@H](C)[C@H](N)C(=O)N[C@@H](CCCN=C(N)N)C(=O)N[C@H](C(=O)N[C@@H](CCCN=C(N)N)C(=O)N1CCC[C@H]1C(=O)N[C@H](C(=O)N[C@@H](CCCN=C(N)N)C(=O)N[C@H](C(=O)N[C@@H](CCCN=C(N)N)C(=O)N1CCC[C@H]1C(=O)O)[C@@H](C)CC)[C@@H](C)CC)[C@@H](C)CC [IRIRPIRIRP],MIC [7]: > 128 µM; MIC [8]: > 128 µM; MIC [9]: > 128 µM; MIC [10]: > 128 µM; MIC [11]: ≥ 128 µM; MIC [12]: ≥ 128 µM; MIC [13]: > 128 µM; MIC [14]: > 128 µM

# The next lines start with the compound.
SMILES,MIC [2],MIC [3],MIC [4],MIC [5],MIC [6],other results
CC[C@H](C)[C@@H]1NC(=O)[C@H](CC(C)C)NC(=O)[C@@H](NC(=O)[C@@H](NC(=O)[C@H](Cc2ccccc2)NC(=O)[C@H](CCCCN)NC(=O)[C@@H]2CCCN2C(=O)[C@@H](NC(=O)[C@H](CCSC)NC(=O)[C@H](CO)NC(=O)[C@H](C)NC(=O)[C@H](C)NC(=O)[C@H](CC(C)C)NC(=O)CNC(=O)[C@H](C)NC(=O)[C@H](CC(C)C)NC(=O)[C@H](CCSC)NC(=O)[C@@H]2CCCN2C(=O)[C@H](CC(C)C)NC(=O)[C@@H](N)Cc2ccccc2)C(C)C)C(C)C)CSSC[C@@H](C(=O)O)NC(=O)[C@H](CCCCN)NC(=O)[C@H](CCCCN)NC(=O)[C@H]([C@@H](C)O)NC1=O [FLPMLAGLAASMVPKFVCLITKKC],16 µM,,,,,MIC [1]: 8 µM
CC[C@H](C)[C@H](NC(=O)CNC(=O)[C@H](CO)NC(=O)[C@H](CC(C)C)NC(=O)[C@H](CC(C)C)NC(=O)[C@H](CCCCN)NC(=O)CNC(=O)[C@@H](NC(=O)[C@@H](NC(=O)[C@@H]1CCCN1C(=O)[C@H](CC(C)C)NC(=O)[C@@H](NC(=O)[C@@H](NC(=O)[C@@H]1CCCN1C(=O)[C@H](CC(C)C)NC(=O)[C@@H](N)Cc1ccccc1)C(C)C)[C@@H](C)CC)C(C)C)[C@@H](C)CC)C(=O)N[C@@H](CC(C)C)C(N)=O [FLPVILPVIGKLLSGIL],> 50 µM,,,,,MIC [1]: 25 µM
CC[C@H](C)[C@H](NC(=O)[C@H](CO)NC(=O)[C@H](CC(C)C)NC(=O)[C@H](Cc1ccccc1)NC(=O)CN)C(=O)N[C@@H](CC(C)C)C(=O)N[C@@H](CCCCN)C(=O)N[C@@H](CCCCN)C(=O)N[C@H](C(=O)N[C@@H](CC(C)C)C(=O)N[C@@H](CCCCN)C(=O)N[C@H](C(=O)N[C@@H](CCSC)C(=O)N[C@@H](C)C(=O)N[C@@H](Cc1cnc[nH]1)C(=O)N[C@@H](CCSC)C(=O)N[C@@H](CCCCN)C(N)=O)C(C)C)C(C)C [GFLSILKKVLKVMAHMK],,5 µM,1.8 µM,0.9 µM,27.5 µM,
CC[C@H](C)[C@H](NC(=O)[C@H](Cc1cnc[nH]1)NC(=O)[C@H](CCCCN)NC(=O)[C@H](CC(C)C)NC(=O)[C@H](CC(C)C)NC(=O)[C@H](CO)NC(=O)[C@H](CCCCN)NC(=O)[C@H](Cc1c[nH]c2ccccc12)NC(=O)[C@H](CCCCN)NC(=O)CN)C(=O)N[C@@H](CC(C)C)C(=O)N[C@@H](CCCCN)C(N)=O [GKWKSLLKHILK],,20 µM,3.7 µM,1.2 µM,34.2 µM,
CC[C@H](C)[C@H](NC(=O)[C@H](Cc1cnc[nH]1)NC(=O)[C@H](CCCCN)NC(=O)[C@H](CC(C)C)NC(=O)[C@H](Cc1c[nH]c2ccccc12)NC(=O)[C@H](CO)NC(=O)[C@H](CCSC)NC(=O)[C@H](Cc1c[nH]c2ccccc12)NC(=O)[C@H](CCCCN)NC(=O)CN)C(=O)N[C@@H](CC(C)C)C(=O)N[C@@H](CCCCN)C(N)=O [GKWMSWLKHILK],,10.1 µM,3.9 µM,1.5 µM,13.5 µM,
